Test results: US8497278B2, “Imidazo[1,2-a]pyridine compounds” (priority 2008, dated 2013)

Tested on: central benzodiazepine receptors
Assay: Central benzodiazepine receptor binding (test of Speth et al.)
Details: 1000 nM of the compound
Experimental: Compounds of the invention were assessed for their binding to the benzodiazepine receptor by the test of Speth et al. [Life Sci. 24, 351 (1979)] for central benzodiazepine receptors and LeFur et al. [Life Sci. 33, 449 (1983)] for peripheral receptors. The compounds were tested first at 1.0E-09, 1.0E-07 and 1.0E-05 M in single determination. […] The specific ligand binding to the receptor is defined as the difference between the total binding and the nonspecific binding determined in the presence of an excess of unlabelled ligand. In each experiment, the respective reference compound was tested concurrently with the test compounds in order to assess the assay suitability. It was tested at several concentrations (for IC50 value determination), and the data were compared with historical values. The assay was rendered valid if suitability criteria were met.
BZD central binding data for the compounds is provided in Table 3, wherein is provided the percent inhibition of central BZD in the presence of 1000 nM of the compound.

With Cc1ccc(-c2nc3c(Cl)cc(Cl)cn3c2CN2CCCC2=O)cc1 [Compound 116, 1-(6,8-Dichloro-2-p-tolyl-imidazo[1,2-a]pyridin-3-ylmethyl)-pyrrolidin-2-one] the “% Inhibition at 1000 nM for CBZD” value was “++ (percentage of inhibition of central BZD site binding is greater than 80% in the presence of 1000 nM of the compound)”.
In the case of CNC(=O)c1nc2ccccc2n1Cc1c(-c2ccc(Cl)cc2)nc2ccccn12 [Compound 36, 1-((2-(4-chlorophenyl)imidazo[1,2-a]pyridin-3-yl)methyl)-N-methyl-1H-benzo[d]imidazole-2-carboxamide], the “% Inhibition at 1000 nM for CBZD” value is reported as “+ (percentage of inhibition of central BZD site binding is greater than 50% but less than 80% in the presence of 1000 nM of the compound)”.
Cc1cc(Cl)nc(NCc2c(-c3ccc(C#N)cc3)nc3ccc(Cl)cn23)n1 [Compound 161, 4-(6-chloro-3-((4-chloro-6-methylpyrimidin-2-ylamino)methyl)imidazo[1,2-a]pyridin-2-yl)benzonitrile] was tested, and the “% Inhibition at 1000 nM for CBZD” value was “++ (percentage of inhibition of central BZD site binding is greater than 80% in the presence of 1000 nM of the compound)”.
COC(=O)c1nn(Cc2c(-c3ccc(Cl)cc3)nc3ccccn23)c2ccccc12 [Compound 34, Methyl 1-((2-(4-chlorophenyl)imidazo[1,2-a]pyridin-3-yl)methyl)-1H-indazole-3-carboxylate] was tested, and the “% Inhibition at 1000 nM for CBZD” value was “+ (percentage of inhibition of central BZD site binding is greater than 50% but less than 80% in the presence of 1000 nM of the compound)”.
Cc1ccc(-c2nc3ccc(C)cn3c2CON2C(=O)c3ccccc3C2=O)cc1 [Compound 173, 2-((6-methyl-2-p-tolylH-imidazo[1,2-a]pyridin-3-yl)methoxy)isoindoline-1,3-dione] was tested, and the “% Inhibition at 1000 nM for CBZD” value was “++ (percentage of inhibition of central BZD site binding is greater than 80% in the presence of 1000 nM of the compound)”.
For Cc1ccc(-c2nc3ccc(C)cn3c2CSc2nncs2)cc1 [Compound 180, 6-Methyl-3-([1,3,4]thiadiazol-2-ylsulfanylmethyl)-2-p-tolyl-imidazo[1,2-a]pyridine], the “% Inhibition at 1000 nM for CBZD” value was “++ (percentage of inhibition of central BZD site binding is greater than 80% in the presence of 1000 nM of the compound)”.
With Cc1ccc(-c2nc3ccc(C)cn3c2Cn2cccc(C)c2=O)cc1 [Compound 97, 3-methyl-1-((6-methyl-2-p-tolylH-imidazo[1,2-a]pyridin-3-yl)methyl)pyridin-2(1H)-one] the “% Inhibition at 1000 nM for CBZD” value was “++ (percentage of inhibition of central BZD site binding is greater than 80% in the presence of 1000 nM of the compound)”.
For Cc1ccc(-c2nc3ccc(C)cn3c2CNn2cnnc2)cc1 [Compound 152, (6-methyl-2-p-tolylH-imidazo[1,2-a]pyridin-3-yl)-N-(4H-1,2,4-triazol-4-yl)methanamine], the “% Inhibition at 1000 nM for CBZD” value was “+ (percentage of inhibition of central BZD site binding is greater than 50% but less than 80% in the presence of 1000 nM of the compound)”.
With CCNc1ccn(Cc2c(-c3ccc(Cl)cc3)nc3ccccn23)c(=O)n1 [Compound 132, 1-((2-(4-chlorophenyl)imidazo[1,2-a]pyridin-3-yl)methyl)-4-(ethylamino)pyrimidin-2(1H)-one] the “% Inhibition at 1000 nM for CBZD” value was “++ (percentage of inhibition of central BZD site binding is greater than 80% in the presence of 1000 nM of the compound)”.
For CC(C)(C)OC(=O)N1CCCC1c1ccnc(NCc2c(-c3ccc(F)cc3)nc3ccc(Cl)cn23)n1 (centres unmarked) [Compound 194, Tert-butyl 2-(2-((6-chloro-2-(4-fluorophenyl)imidazo[1,2-a]pyridin-3-yl)methylamino)pyrimidin-4-yl)pyrrolidine-1-carboxylate], the “% Inhibition at 1000 nM for CBZD” value was “+ (percentage of inhibition of central BZD site binding is greater than 50% but less than 80% in the presence of 1000 nM of the compound)”.
For COC(=O)c1cc2occc2n1Cc1c(-c2ccc(Cl)cc2)nc2ccccn12 [Compound 33, Methyl 4-((2-(4-chlorophenyl)imidazo[1,2-a]pyridin-3-yl)methyl)-4H-furo[3,2-b]pyrrole-5-carboxylate], the “% Inhibition at 1000 nM for CBZD” value was “++ (percentage of inhibition of central BZD site binding is greater than 80% in the presence of 1000 nM of the compound)”.
Fc1cc(F)nc(NCc2c(-c3ccccc3)nc3ccccn23)n1 [Compound 164, 4,6-difluoro-N-((2-phenylimidazo[1,2-a]pyridin-3-yl)methyl)pyrimidin-2-amine] was tested, and the “% Inhibition at 1000 nM for CBZD” value was “++ (percentage of inhibition of central BZD site binding is greater than 80% in the presence of 1000 nM of the compound)”.
With Cc1ccc(-c2nc3ccc(C)cn3c2CNn2c(C)nc3ccccc3c2=O)cc1 [Compound 155, 2-Methyl-3-[(6-methyl-2-p-tolyl-imidazo[1,2-a]pyridin-3-ylmethyl)-amino]-3H-quinazolin-4-one] the “% Inhibition at 1000 nM for CBZD” value was “+ (percentage of inhibition of central BZD site binding is greater than 50% but less than 80% in the presence of 1000 nM of the compound)”.
With Cc1ccc(-c2nc3ccc(C)cn3c2Cn2cnc3ccccc32)cc1 [Compound 16, 1-((6-Methyl-2-p-tolyl-H-imidazo[1,2-a]pyridin-3-yl)methyl)-1H-benzo[d]imidazole] the “% Inhibition at 1000 nM for CBZD” value was “++ (percentage of inhibition of central BZD site binding is greater than 80% in the presence of 1000 nM of the compound)”.
With Cc1ccc(-c2nc3ccc(C)cn3c2CN2C(=O)CN(C)C2=O)cc1 [Compound 102, 1-methyl-3-((6-methyl-2-p-tolylH-imidazo[1,2-a]pyridin-3-yl)methyl)imidazolidine-2,4-dione] the “% Inhibition at 1000 nM for CBZD” value was “+ (percentage of inhibition of central BZD site binding is greater than 50% but less than 80% in the presence of 1000 nM of the compound)”.
With Cc1ccc(-c2nc3ccc(C)cn3c2CSc2cccs2)cc1 [Compound 178, 6-Methyl-3-(thiophen-2-ylsulfanylmethyl)-2-p-tolyl-imidazo[1,2-a]pyridine] the “% Inhibition at 1000 nM for CBZD” value was “+ (percentage of inhibition of central BZD site binding is greater than 50% but less than 80% in the presence of 1000 nM of the compound)”.
With CCOC(=O)c1cc2ccccc2n1Cc1c(-c2ccc(Cl)cc2)nc2ccccn12 [Compound 37, Ethyl 1-((2-(4-chlorophenyl)imidazo[1,2-a]pyridin-3-yl)methyl)-1H-indole-2-carboxylate] the “% Inhibition at 1000 nM for CBZD” value was “− (percentage of inhibition of central BZD site binding is less than 50% in the presence of 1000 nM of the compound)”.
Cc1ccc(-c2nc3ccc(C)cn3c2COc2cccnc2)cc1 [Compound 175, 6-Methyl-3-(pyridin-3-yloxymethyl)-2-p-tolyl-imidazo[1,2-a]pyridine] was tested, and the “% Inhibition at 1000 nM for CBZD” value was “++ (percentage of inhibition of central BZD site binding is greater than 80% in the presence of 1000 nM of the compound)”.
Cc1ccc(-c2nc3ccc(C)cn3c2COn2nnc3ccccc32)cc1 [Compound 174, 1-((6-methyl-2-p-tolylH-imidazo[1,2-a]pyridin-3-yl)methoxy)-1H-benzo[d][1,2,3]triazole] was tested, and the “% Inhibition at 1000 nM for CBZD” value was “++ (percentage of inhibition of central BZD site binding is greater than 80% in the presence of 1000 nM of the compound)”.
With Cc1ccc(-c2nc3c(Cl)cc(Cl)cn3c2Cn2cccn2)cc1 [Compound 65, 3-((1H-pyrazol-1-yl)methyl)-6,8-dichloro-2-p-tolylimidazo[1,2-a]pyridine] the “% Inhibition at 1000 nM for CBZD” value was “++ (percentage of inhibition of central BZD site binding is greater than 80% in the presence of 1000 nM of the compound)”.
